Reference: the supplement of paper PMC10307832

Legend:
Assay in all cases: relative viability (nuclei count vs DMSO), 5 days (fraction); higher = more cells survive
A549 = tested on: A549
In short: (§1)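 Lung cancer cell lines were seeded in 1536-well plates and dosed by pin tool the next day, with either a single drug or a fixed anchor-drug dose combined with five library-drug doses (not always all listed) spaced in √10 steps. Five days later, one step fixed the cells and stained their nuclei (final 0.05% Triton X-100, 1% formaldehyde, 1 ug/ml Hoechst), and nuclei were counted on 4× images. Relative viability is the nuclei count in treated wells divided by the count in vehicle wells, and each value is the median of duplicate plates.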

Calu-6 = tested on: Calu-6
In short: as §1

EBC-1 = tested on: EBC-1
In short: as §1

IA-LM = tested on: IA-LM
In short: as §1

LOU-NH91 = tested on: LOU-NH91
In short: as §1

NCI-H1299 = tested on: NCI-H1299
In short: as §1

NCI-H1703 = tested on: NCI-H1703
In short: as §1

NCI-H2009 = tested on: NCI-H2009
In short: as §1

NCI-H2405 = tested on: NCI-H2405
In short: as §1

NCI-H647 = tested on: NCI-H647
In short: as §1

What does the source list for `Cc1csc(=NC2CCCCC2)n1/N=C/c1ccc(O)c(O)c1O` [MIM1] + CS(=O)(=O)CCNCc1ccc(-c2ccc3ncnc(Nc4ccc(OCc5cccc(F)c5)c(Cl)c4)c3c2)o1 [Lapatinib] (partner 2 µM)?
relative viability (A549; first compound 0.2 µM): 0.997; relative viability (A549; first compound 0.6325 µM): 0.941; relative viability (A549; first compound 2 µM): 1.03; relative viability (A549; first compound 6.325 µM): 0.595; relative viability (A549; first compound 20 µM): 0.222; relative viability (Calu-6; first compound 0.2 µM): 1.08; relative viability (Calu-6; first compound 0.6325 µM): 0.985; relative viability (Calu-6; first compound 2 µM): 1.06; relative viability (Calu-6; first compound 6.325 µM): 0.509; relative viability (Calu-6; first compound 20 µM): 0.289; relative viability (EBC-1; first compound 0.2 µM): 0.199; relative viability (EBC-1; first compound 0.6325 µM): 0.279; relative viability (EBC-1; first compound 2 µM): 0.212; relative viability (EBC-1; first compound 6.325 µM): 0.209; relative viability (EBC-1; first compound 20 µM): 0.205; relative viability (IA-LM; first compound 0.2 µM): 0.66; relative viability (IA-LM; first compound 0.6325 µM): 0.869; relative viability (IA-LM; first compound 2 µM): 0.716; relative viability (IA-LM; first compound 6.325 µM): 0.375; relative viability (IA-LM; first compound 20 µM): 0.151; relative viability (LOU-NH91; first compound 0.2 µM): 0.744; relative viability (LOU-NH91; first compound 0.6325 µM): 0.8; relative viability (LOU-NH91; first compound 2 µM): 0.645; relative viability (LOU-NH91; first compound 6.325 µM): 0.625; relative viability (LOU-NH91; first compound 20 µM): 0.362; relative viability (NCI-H1299; first compound 0.2 µM): 0.978; relative viability (NCI-H1299; first compound 0.6325 µM): 0.954; relative viability (NCI-H1299; first compound 2 µM): 1; relative viability (NCI-H1299; first compound 6.325 µM): 0.924; relative viability (NCI-H1299; first compound 20 µM): 0.948; relative viability (NCI-H1703; first compound 0.2 µM): 1.02; relative viability (NCI-H1703; first compound 0.6325 µM): 1.23; relative viability (NCI-H1703; first compound 2 µM): 0.906; relative viability (NCI-H1703; first compound 6.325 µM): 0.166; relative viability (NCI-H1703; first compound 20 µM): 0.202; relative viability (NCI-H2009; first compound 0.2 µM): 1.04; relative viability (NCI-H2009; first compound 0.6325 µM): 0.876; relative viability (NCI-H2009; first compound 2 µM): 1.1; relative viability (NCI-H2009; first compound 6.325 µM): 0.449; relative viability (NCI-H2009; first compound 20 µM): 0.133; relative viability (NCI-H2405; first compound 0.2 µM): 1.13; relative viability (NCI-H2405; first compound 0.6325 µM): 1.09; relative viability (NCI-H2405; first compound 2 µM): 1.12; relative viability (NCI-H2405; first compound 6.325 µM): 0.854; relative viability (NCI-H2405; first compound 20 µM): 0.606; relative viability (NCI-H647; first compound 0.2 µM): 1.03; relative viability (NCI-H647; first compound 0.6325 µM): 1.04; relative viability (NCI-H647; first compound 2 µM): 1.02; relative viability (NCI-H647; first compound 6.325 µM): 0.633; relative viability (NCI-H647; first compound 20 µM): 0.104

Which relative viability (A549; first compound 0.253 µM) does the source give for `Nc1cccc2c1CN(C1CCC(=O)NC1=O)C2=O` (stereo not given) [Lenalidomide] + CS(=O)(=O)CCNCc1ccc(-c2ccc3ncnc(Nc4ccc(OCc5cccc(F)c5)c(Cl)c4)c3c2)o1 [Lapatinib] (partner 2 µM) here?
The relative viability was 1.06.

And the relative viability (A549; first compound 0.8 µM)?
The relative viability was 1.09.

What about the relative viability (A549; first compound 2.53 µM) of the same molecule?
Its relative viability is 0.972.

And the relative viability (A549; first compound 8 µM)?
The relative viability was 1.02.

And the relative viability (Calu-6; first compound 0.253 µM)?
The relative viability was 0.971.

What about the relative viability (Calu-6; first compound 0.8 µM) of the same molecule?
Its relative viability is 1.09.

And the relative viability (Calu-6; first compound 2.53 µM)?
Its relative viability is 1.17.

And the relative viability (Calu-6; first compound 8 µM)?
Its relative viability is 1.13.

And the relative viability (EBC-1; first compound 0.253 µM)?
Its relative viability is 0.211.

What about the relative viability (EBC-1; first compound 0.8 µM) of the same molecule?
The relative viability was 0.205.

And the relative viability (EBC-1; first compound 2.53 µM)?
Its relative viability is 0.217.

What about the relative viability (EBC-1; first compound 8 µM) of the same molecule?
Its relative viability is 0.235.

What about the relative viability (IA-LM; first compound 0.253 µM) of the same molecule?
The relative viability was 0.647.

And the relative viability (IA-LM; first compound 0.8 µM)?
The relative viability was 0.557.

What about the relative viability (IA-LM; first compound 2.53 µM) of the same molecule?
Its relative viability is 0.613.

And the relative viability (IA-LM; first compound 8 µM)?
Its relative viability is 0.532.

And the relative viability (LOU-NH91; first compound 0.253 µM)?
Its relative viability is 0.771.

And the relative viability (LOU-NH91; first compound 0.8 µM)?
The relative viability was 0.675.

And the relative viability (LOU-NH91; first compound 2.53 µM)?
Its relative viability is 0.758.

What about the relative viability (LOU-NH91; first compound 8 µM) of the same molecule?
The relative viability was 0.579.

What about the relative viability (NCI-H1299; first compound 0.253 µM) of the same molecule?
The relative viability was 0.961.

What about the relative viability (NCI-H1299; first compound 0.8 µM) of the same molecule?
The relative viability was 0.873.

What about the relative viability (NCI-H1299; first compound 2.53 µM) of the same molecule?
The relative viability was 0.948.

And the relative viability (NCI-H1299; first compound 8 µM)?
Its relative viability is 1.01.

And the relative viability (NCI-H1703; first compound 0.253 µM)?
Its relative viability is 1.06.

What about the relative viability (NCI-H1703; first compound 0.8 µM) of the same molecule?
The relative viability was 1.78.

And the relative viability (NCI-H1703; first compound 2.53 µM)?
Its relative viability is 1.42.

What about the relative viability (NCI-H1703; first compound 8 µM) of the same molecule?
Its relative viability is 1.24.

What about the relative viability (NCI-H2009; first compound 0.253 µM) of the same molecule?
Its relative viability is 0.919.

And the relative viability (NCI-H2009; first compound 0.8 µM)?
The relative viability was 0.947.

What about the relative viability (NCI-H2009; first compound 2.53 µM) of the same molecule?
Its relative viability is 1.25.

And the relative viability (NCI-H2009; first compound 8 µM)?
The relative viability was 1.25.

What about the relative viability (NCI-H2405; first compound 0.253 µM) of the same molecule?
The relative viability was 1.

What about the relative viability (NCI-H2405; first compound 0.8 µM) of the same molecule?
Its relative viability is 0.949.

What about the relative viability (NCI-H2405; first compound 2.53 µM) of the same molecule?
Its relative viability is 1.03.

And the relative viability (NCI-H2405; first compound 8 µM)?
Its relative viability is 0.884.

And the relative viability (NCI-H647; first compound 0.253 µM)?
The relative viability was 0.995.

And the relative viability (NCI-H647; first compound 0.8 µM)?
Its relative viability is 0.981.

And the relative viability (NCI-H647; first compound 2.53 µM)?
Its relative viability is 1.46.

And the relative viability (NCI-H647; first compound 8 µM)?
The relative viability was 0.88.
